Results: patent US4387105A, “Methods of treating atherosclerosis with dialkylureas and dialkylthioureas” (priority 1982, dated 1983)

Legend:
[1] = target: T1, fatty acyl CoA:cholesterol acyl transferase (ACAT) (Rattus norvegicus, UniProt O70536); assay: Inhibition of ACAT in rat adrenal microsomal supernatant (14C-oleoyl CoA, cholesteryl ester counted); assay type: biochemical; parameters: dose or concentration left out as unconfirmed; details: vs control without compound
T1 construct: The supernatant, containing the microsomal fraction, served as the source of the cholesterol-esterifying enzyme; from tissue; host or cells: rat adrenals (1000 x g supernatant containing the microsomal fraction)
T1 sequence (O70536 1-545): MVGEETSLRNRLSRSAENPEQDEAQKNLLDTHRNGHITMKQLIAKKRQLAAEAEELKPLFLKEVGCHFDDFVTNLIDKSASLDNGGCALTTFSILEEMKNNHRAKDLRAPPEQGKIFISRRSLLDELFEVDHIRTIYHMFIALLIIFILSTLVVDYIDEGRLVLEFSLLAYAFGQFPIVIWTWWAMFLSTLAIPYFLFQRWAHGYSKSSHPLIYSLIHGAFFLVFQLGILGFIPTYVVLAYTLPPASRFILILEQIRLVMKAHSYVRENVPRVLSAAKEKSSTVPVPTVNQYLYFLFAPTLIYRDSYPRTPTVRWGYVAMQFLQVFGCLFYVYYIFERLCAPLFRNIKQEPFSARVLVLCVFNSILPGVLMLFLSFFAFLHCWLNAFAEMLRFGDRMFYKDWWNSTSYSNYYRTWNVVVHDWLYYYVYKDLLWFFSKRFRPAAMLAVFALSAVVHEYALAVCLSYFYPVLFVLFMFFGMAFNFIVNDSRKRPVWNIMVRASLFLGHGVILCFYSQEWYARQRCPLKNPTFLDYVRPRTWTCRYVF
Description: The compounds of the present invention were assayed for two types of biological activity related to their potential use as antiatherosclerotic agents. Compounds were tested in vitro for the ability to inhibit the enzyme fatty acyl CoA:cholesterol acyl transferase (ACAT) and in vivo for serum hypolipidemic activity as measured by their ability to inhibit lipid absorption in rats. The compounds were tested for their ability to inhibit ACAT according to the following procedure:
Rat adrenals were homogenized in 0.2 M monobasic potassium phosphate buffer, pH 7.4, and centrifuged at 1000 times gravity for 15 minutes at 5° C. The supernatant, containing the microsomal fraction, served as the source of the cholesterol-esterifying enzyme, fatty acyl CoA:cholesterol acyl transferase (ACAT). A mixture comprising 50 parts of adrenal supernatant, 10 parts of albumin (BSA) (50 mg./ml.), 3 parts of test compound (final concentration […].) and 500 parts of buffer was preincubated at 37° C. for 10 minutes. After treatment with 20 parts of oleoyl CoA(^14 C-[…]) the mixture was incubated at 37° C. for 10 minutes. A control mixture, omitting the test compound, was prepared and treated in the same manner. The lipids from the incubation mixture were extracted into an organic solvent and separated by thin-layer chromatography. The cholesteryl ester fraction was counted in a scintillation counter. This procedure is a modification of that described by Hashimoto, et al., Life Scie., 12 (Part II), 1-12 (1973).

cholesterol absorption = details: po, 0.03 % of diet, 336 h
Description: Inhibition of cholesterol absorption was determined by feeding male Sprague-Dawley rats, weighing 150-170 g., a 1% cholesterol:0.5% cholic acid diet for 2 weeks. The diet also contained compounds being tested at a dose of 0.03% of the diet. Control rats were fed the same diet without any compound. At the end of the test the rats were sacrificed by decapitation. […] Livers are removed, a 0.4 g sample is taken from the center of the large lobe, and the sample is subjected to saponification using 25% saturated potassium hydroxide in ethanol. The resulting neutral sterols are extracted with petroleum ether and extract analyzed for cholesterol. The effectiveness of the compound in inhibiting cholesterol absorption is measured by the lowering of either serum cholesterol or liver cholesterol relative the values for control rats.

Row | Molecule | % Inhibition [1] | Result (inhibition of cholesterol absorption: lowering of either serum cholesterol or liver cholesterol relative to control rats) (cholesterol absorption)
1 | Cc1ccc(NC(=O)N(C2CCCC2)C2CCCC2)c(C)c1 [1,1-Di-(cyclopentyl)-3-(2,4-dimethylphenyl)urea] | 90.4% | –
2 | CCCCN(CCCC)C(=O)Nc1cccc(Cl)c1Cl [1,1-Di-(n-butyl)-3-(2,3-dichlorophenyl)urea] | 71.8% | –
3 | CCCCN(CCCC)C(=O)Nc1cccc(C(F)(F)F)c1 [1,1-Di-(n-butyl)-3-(3-trifluoromethylphenyl)urea] | 75.0% | –
4 | CCCCN(CCCC)C(=O)Nc1ccc(OCC)cc1 [1,1-di-(n-butyl)-3-(4-ethoxyphenyl)urea, 1,1-Di-(n-butyl)-3-(4-ethoxyphenyl)urea] | 78.6% | –
5 | CCCCN(CCCC)C(=O)Nc1c(C)cc(C)cc1C [1,1-Di-(n-butyl)-3-(2,4,6-trimethylphenyl)urea] | 73.4% | –
6 | CCCCN(CCCC)C(=O)Nc1cc(C)ccc1C [1,1-Di-(n-butyl)-3-(2,5-dimethylphenyl)urea] | 96.1% | –
7 | CCCCN(CCCC)C(=O)Nc1cccc(SC)c1 [1,1-Di-(n-butyl)-3-(3-methylthiophenyl)urea] | 84.7% | –
8 | CCCCN(CCCC)C(=O)Nc1cccc(C)c1C [1,1-Di-(n-butyl)-3-(2,3-dimethylphenyl)urea] | 87.6% | –
9 | CCCCCCCCCCCCN(CCCCCCCCCCCC)C(=O)Nc1ccc(C)cc1C [1,1-Di-(n-dodecyl)-3-(2,4-dimethylphenyl)urea] | 26.3% | –
10 | CCCCN(CCCC)C(=O)Nc1ccc([N+](=O)[O-])cc1Cl [1,1-Di-(n-butyl)-3-(2-chloro-4-nitrophenyl)urea] | 86.7% | –
11 | CCCCN(CCCC)C(=O)Nc1ccc(C(C)C)cc1 [1,1-Di-(n-butyl)-3-(4-isopropylphenyl)urea] | 76.4% | –
12 | CCCCN(CCCC)C(=O)Nc1cc(Cl)cc(Cl)c1Cl [1,1-Di-(n-butyl)-3-(2,3,5-trichlorophenyl)urea] | 61.6% | –
13 | CCCCN(CCCC)C(=O)Nc1cccc(Cl)c1C [1,1-Di-(n-butyl)-3-(3-chloro-2-methylphenyl)urea] | 80.2% | Active
14 | CCCCN(CCCC)C(=O)Nc1ccc(Cl)c(C(F)(F)F)c1 [1,1-Di-(n-butyl)-3-(4-chloro-3-trifluoromethylphenyl)urea] | 87.3% | –
15 | CCCCN(CCCC)C(=O)Nc1ccc(C)c(C)c1 [1,1-Di-(n-butyl)-3-(3,4-dimethylphenyl)urea] | 49.2% | –
16 | CCCCN(CCCC)C(=O)Nc1c(C)cccc1C [1,1-Di-(n-butyl)-3-(2,6-dimethylphenyl)urea] | 85.3% | –
17 | CCCCN(CCCC)C(=O)Nc1ccc(C)c(Cl)c1 [1,1-Di-(n-butyl)-3-(3-chloro-4-methylphenyl)urea] | 91.2% | –
18 | CCCCN(CCCC)C(=O)Nc1ccc(Cl)cc1Cl [1,1-Di-(n-butyl)-3-(2,4-dichlorophenyl)urea] | 70.0% | –
19 | CCCCN(CCCC)C(=O)Nc1ccc(F)c(Cl)c1 [1,1-Di-(n-butyl)-3-(3-chloro-4-fluorophenyl)urea] | 90.9% | –
20 | Cc1ccc(NC(=O)N(CCCCC2CCCCC2)CCCCC2CCCCC2)c(C)c1 [1,1-Di-(4-cyclohexyl-n-butyl)-3-(2,4-dimethylphenyl)urea] | 86.3% | –
21 | CCCCN(CCCC)C(=O)Nc1cccc(Cl)c1 [1,1-di-(n-butyl)-3-(3-chlorophenyl)urea, 1,1-Di-(n-butyl)-3-(3-chlorophenyl)urea] | 88.3% | –
22 | CCCCCCCCCN(CCCCCCCCC)C(=O)Nc1ccc(C)cc1C [1,1-Di-(n-nonyl)-3-(2,4-dimethylphenyl)urea] | 90.0% | –

Continued, in another order:

Row | % Inhibition [1] | Molecule | Result (inhibition of cholesterol absorption: lowering of either serum cholesterol or liver cholesterol relative to control rats) (cholesterol absorption)
23 | 50.9% | CCCCN(CCCC)C(=O)Nc1cccc(C(C)=O)c1 [1,1-di-(n-butyl)-3-(3-acetylphenyl)urea, 1,1-Di-(n-butyl)-3-(3-acetylphenyl)urea] | –
24 | 58.7% | CCCCN(CCCC)C(=O)Nc1ccc(OC)cc1 [1,1-di-(n-butyl)-3-(4-methoxyphenyl)urea, 1,1-Di-(n-butyl)-3-(4-methoxyphenyl)urea] | –
25 | 35.4% | CC(C)CN(CC(C)C)C(=O)Nc1ccccc1Cl [1,1-di-(isobutyl)-3-(2-chlorophenyl)urea] | –
26 | 79.9% | CCCCN(CCCC)C(=O)Nc1ccc(C)cc1 [1,1-di-(n-butyl)-3-(4-methylphenyl)urea, 1,1-Di-(n-butyl)-3-(4-methylphenyl)urea] | –
27 | 93.5% | CCCCc1ccc(NC(=O)N(CCCC)CCCC)cc1 [1,1-di-(n-butyl)-3-(4-n-butylphenyl)urea, 1,1-Di-(n-butyl)-3-(4-n-butylphenyl)urea] | Active
28 | 94.3% | Cc1ccc(NC(=O)N(C2CCCCC2)C2CCCCC2)c(C)c1 [1,1-dicyclohexyl-3-(2,4-dimethylphenyl)urea] | –
29 | 94.5% | CCCCN(CCCC)C(=O)Nc1ccc(C)c(NC(=O)N(CCCC)CCCC)c1 [1,1-di-(n-butyl)-3-[(3,3-dibutyl)urea-4-methylphenyl]urea] | –
30 | 74.3% | Cc1ccc(C)c(NC(=O)N(CC(C)C)CC(C)C)c1 [1,1-di-(isobutyl)-3-(2,5-dimethylphenyl)urea] | –
31 | 78.1% | CCC(C)N(C(=O)Nc1ccc(C)cc1C)C(C)CC (centres unmarked) [1,1-Di-(sec-butyl)-3-(2,4-dimethylphenyl)urea] | –
32 | 88.6% | CCCCCCCCN(CCCCCCCC)C(=O)Nc1ccc(C)cc1C [1,1-Di-(n-octyl)-3-(2,4-dimethylphenyl)urea] | Active
33 | 48.9% | CCCCCCCCCCCN(CCCCCCCCCCC)C(=O)Nc1ccc(C)cc1C [1,1-Di-(n-undecyl)-3-(2,4-dimethylphenyl)urea] | –
34 | 85.1% | 1,1-di-(n-butyl)-3-(2,3-dibenzophenyl)urea | –
35 | 75.3% | CCCCN(CCCC)C(=O)Nc1cc(Cl)ccc1C [1,1-di-(n-butyl)-3-(5-chloro-2-methylphenyl)urea] | –
36 | 41.2% | Cc1cccc(C)c1NC(=O)N(CC(C)C)CC(C)C [1,1-di-(isobutyl)-3-(2,6-dimethylphenyl)urea] | –
37 | 94.7% | Cc1ccc(NC(=O)N(CC(C)C)CC(C)C)cc1NC(=O)N(CC(C)C)CC(C)C [1,1-di-(isobutyl)-3-[(3,3-diisobutyl)urea-4-methylphenyl]urea] | –
38 | 71.0% | CCCCN(CCCC)C(=O)Nc1ccccc1Cl [1,1-di-(n-butyl)-3-(2-chlorophenyl)urea, 1,1-Di-(n-butyl)-3-(2-chlorophenyl)urea] | –
39 | 86.2% | CCCCC(CC)CN(CC(CC)CCCC)C(=O)Nc1ccc(C)cc1C (centres unmarked) [1,1-di-(2-ethylhexyl)-3-(2,4-dimethylphenyl)urea] | –
40 | 91.1% | CCCCCCCN(CCCCCCC)C(=O)Nc1ccc(C)cc1C [1,1-Di-(n-heptyl)-3-(2,4-dimethylphenyl)urea] | –
41 | 55.1% | CCCCN(CCCC)C(=O)Nc1ccc(C(C)=O)cc1 [1,1-di-(n-butyl)-3-(4-acetylphenyl)urea, 1,1-Di-(n-butyl)-3-(4-acetylphenyl)urea] | –
42 | 83.1% | CCCCN(CCCC)C(=O)Nc1ccc(I)cc1 [1,1-di-(n-butyl)-3-(4-iodophenyl)urea, 1,1-Di-(n-butyl)-3-(4-iodophenyl)urea] | –
43 | 78.4% | CCCCN(CCCC)C(=O)Nc1cccc(C)c1 [1,1-di-(n-butyl)-3-(3-methylphenyl)urea, 1,1-Di-(n-butyl)-3-(3-methylphenyl)urea] | –
44 | 55.9% | CCCCN(CCCC)C(=O)Nc1ccc(F)cc1 [1,1-di-(n-butyl)-3-(4-fluorophenyl)urea, 1,1-Di-(n-butyl)-3-(4-fluorophenyl)urea] | –
45 | 88.0% | CCCCN(CCCC)C(=O)Nc1ccc(Cl)cc1C [1,1-di-(n-butyl)-3-(4-chloro-2-methylphenyl)urea] | –
46 | 86.0% | CCCCN(CCCC)C(=O)Nc1cccc(Br)c1 [1,1-di-(n-butyl)-3-(3-bromophenyl)urea, 1,1-Di(n-butyl)-3-(3-bromophenyl)urea] | –
47 | 77.1% | CCCCN(CCCC)C(=O)Nc1cccc(OC)c1 [1,1-di-(n-butyl)-3-(3-methoxyphenyl)urea] | –
